These results are taken from patent publication US5635401A, “Method to detect hormone treatment in animals” (Cornell Research Foundation, Inc., priority 1995, dated 1997).

For test [1], the system named is protein kinase activity of the resident proteins present in the MFGM. Put plainly: Auto-phosphorylation of MFGM proteins with γ 32P-ATP, detected by SDS-PAGE and autoradiography. The class given is biochemical, bovine. The conditions noted are these: for effect on the phosphorylation pattern: valinomycin with or without KCl, ionophore A23187 + CaCl2. How it is done: MFGM and skim milk membranes (SMM) were incubated with γ ^32 P-ATP in the presence of protein phosphatase inhibitors (vanadate, 8-glycerophosphate, phosphotyrosine, phosphoserine, phosphothreonine, p-nitrophenyl phosphate) and 5 mM MgCl, and/or 3 mM MnCl, led to phosphorylation of proteins, as detected by SDS-PAGE and autoradiography. In the bovine MFGM, […] main radiolabelled protein bands were detected and ranged from 13-200 kDa (13, 15, 21, 24, 32, 35, 39, 45, 51, 66, 75, 100, 130, 200). In the human MFGM, 8 bands were indentified and ranged between 20-150 kDa five main bands corresponding to 51, 65, 66, 100, and 130, and three weaker bands corresponding to 21, 24 and 27 kDa. Phosphorylation of bovine skim milk membrane (SMM) proteins was observed only after the addition of 0.1% Triton X-100 to membranes. In this case, the three-four main radioactive bands were detected in a zone between 32 and 35 kDa, and one band in the 75 kDa range.
The presence of phosphatase inhibitors in the kinase media was necessary to see maximal levels of protein phosphorylation. The phosphorylation reaction would not take place when Mg^2+ and Mn^2+ were substituted for Ca^2+. Genistein, an inhibitor of protein tyrosine kinase activity caused approximately 50% inhibition of phosphorylation.
It is believed that the observed phosphorylation was a result of Mg^2+ or Mn^2+ --dependent protein kinase activity of the resident proteins present in the MFGM.

Test [2] has as its system bovine mammary and human breast cancer cells. The conditions noted are these: including bovine mammary and human breast cancer cells; cited from earlier work.
Test [3] deals with fatty acid binding protein (FABP/MDGI). Put plainly: FABP phosphorylation in MFGM of milk from cows treated with bST (15 kDa band intensity on electrophoresis gel, FIG. 1). It is filed as in vivo, cow. The following applies: for phosphorylated 15 kDa protein (FABP) relative to non-bST treated control cow: FIG. 1. Here is the method: The test for determining whether an animal has been treated with bST is performed by: 1) isolating the milk fat globule membranes (MFGM); 2) phosphorylating the MFGM; 3) and detecting the levels of phosphorylation of FABP in MFGM.
Milk fat globule membranes (MFGM) are prepared from the cream of fresh bovine milk. Between 100-200 ml fresh bovine milk from cows administered bST are collected. The cream is obtained by centrifugation of milk at 3,000×g for 20 min. It is then suspended in two volumes of 10 mM phosphate buffer, pH 7.4, containing 0.9% NaCl (PBS), and homogenized in a Warring blender for 45 sec. The homogenate is centrifuged at 100,000×g for 90 min. The MFGM pellet is washed once by resuspension in an initial volume of PBS, followed by centrifugation at 100,000×gfor 90 min. No cells (somatic cells) are found in the MFGM, as determined by light microscopy. MFGM may be either used immediately or stored at -80' C. for future use.
FABP/MDGI is involved in the binding and transport of milk fatty acids.
FIG. 1 is a bar graph showing intensity of a band on an electrophoresis gel showing FABP phosphorylation at the 15 kDalton level. The non-bST treated cow was used as a control. A sample from a milk bulk tank containing milk from cows treated with bST has only about a quarter of the phosphorylated 15 kDa protein.

In the case of `N#CC(C#N)=NNc1cccc(Cl)c1` [CCCP, carbonyl-cyanide-m-chlorophenyl hydrazone], in test [1], the “effect on the phosphorylation pattern” value is reported as “did not significantly alter”.
Same read-out and setting: the same measure for `C(=NC1CCCCC1)=NC1CCCCC1` [DCCD, dicyclohexylcarbodimide]: “did not significantly alter”.
For `O=c1c(-c2ccc(O)cc2)coc2cc(O)cc(O)c12` [Genistein], the inhibition of phosphorylation result in test [1] (kinase media with phosphatase inhibitors) was “approximately 50%”.
For `CC1OC(OC2CC(O)C3(CO)C4C(O)CC5(C)C(C6=CC(=O)OC6)CCC5(O)C4CCC3(O)C2)C(O)C(O)C1O` (stereo not drawn) [Oubain], the “effect on the phosphorylation pattern” value in test [1] was “did not significantly alter”.
Regarding `C=C1[C@@H]2CC[C@H]3[C@]4(C)C[C@H](O[C@@H]5O[C@H](CO)[C@@H](OS(=O)(=O)O)[C@H](OS(=O)(=O)O)[C@H]5OC(=O)CC(C)C)C[C@@H](C(=O)O)[C@H]4CC[C@]3(C2)[C@H]1O` [atractyloside], the “effect on the phosphorylation pattern” value in test [1] is recorded as “did not significantly alter”.
`CNc1ccc2oc(C[C@H]3O[C@@]4(CC[C@H]3C)O[C@H]([C@H](C)C(=O)c3ccc[nH]3)[C@H](C)C[C@H]4C)nc2c1C(=O)O` [ionophore A23187]: the “effect on the phosphorylation pattern” value in test [1] was “did not significantly alter”.
On the same count and under the same terms, the same measure for `CC(C)[C@@H]1NC(=O)[C@H](C)OC(=O)[C@@H](C(C)C)NC(=O)[C@@H](C(C)C)OC(=O)[C@H](C(C)C)NC(=O)[C@H](C)OC(=O)[C@@H](C(C)C)NC(=O)[C@@H](C(C)C)OC(=O)[C@H](C(C)C)NC(=O)[C@H](C)OC(=O)[C@@H](C(C)C)NC(=O)[C@@H](C(C)C)OC1=O` [valinomycin]: “did not significantly alter”.

B1: MDGI/FABP: mammary derived growth inhibitor / fatty acid binding protein, a 15 kDa protein of the milk fat globule membrane (protein, UniProt P10790 2-133, looked up)
Fatty acid-binding protein, …: VDAFVGTWKLVDSKNFDDYMKSLGVGFATRQVGNMTKPTTIIEVNGDTVIIKTQSTFKNTEISFKLGVEFDETTADDRKVKSIVTLDGGKLVHVQKWNGQETSLVREMVDGKLILTLTHGTAVCTRTYEKQA
Consider B1, for which the “growth of various cell types” value in test [2] was “inhibits the growth”.

B2: bST: recombinant bovine somatotropin, growth hormone approved for use in dairy cows (protein, UniProt P01246 27-217, looked up)
Somatotropin: AFPAMSLSGLFANAVLRAQHLHQLAADTFKEFERTYIPEGQRYSIQNTQVAFCFSETIPAPTGKNEAQQKSDLELLRISLLLIQSWLGPLQFLSRVFTNSLVFGTSDRVYEKLKDLEEGILALMRELEDGTPRAGQILKQTYDKFDTNMRSDDALLKNYGLLSCFRKDLHKTETYLRVMKCRRFGEASCAF
For B2, the “levels of phosphorylated MDGI/FABP” value in test [3] (MFGM isolated from cows treated with bST vs non treated cows) is given as “significantly reduced”. In addition, the FABP autophosphorylation activity entry in test [3] (cows treated with bST vs non treated cows) is given as “weaker”. The “phosphorylated 15 kDa protein (FABP) relative to non-bST treated control cow” value in test [3] (individual cows treated with bST) is “significant decrease”; in test [3] (milk bulk tank sample containing milk from cows treated with bST), “about a quarter”.
